Measured values from publication PMC8632694 (Frontiers in Pharmacology, 2021).
“Also recorded” adds a separate entry of the source. Where two headings read alike, the source gives them in different places. Blank lines part the entries; values can stand above or below the molecule they belong to.

Tests used:
clinical = conditions: human, in vivo, AUCτ
[1] = human, in vivo
[2] = Safety and tolerability: treatment-emergent adverse events by intervention; type: in vivo, human; conditions: for number of TEAEs (all) / number of subjects with TEAEs / percentage of subjects with TEAEs: per intervention (R1 31, R2 28, T 30, V 29 subjects), T and V co-administered with atorvastatin; for subjects who discontinued the study due to AEs: neutropenia in intervention T, blood creatine phosphokinase increased in intervention R
Protocol: Safety was assessed based on symptom reports, physical examinations, vital signs, 12-lead ECGs, and clinical laboratory tests (hematology, clinical chemistry, and urinalysis).

[3] = when absorbed through the intestine; ref Lennernäs, 2003; cited from earlier work
[4] = Steady-state plasma pharmacokinetics of atorvastatin, 2-hydroxyatorvastatin and atorvastatin lactone after atorvastatin 40 mg once daily for 7 days, alone or co-administered with tegoprazan 50 mg or vonoprazan 20 mg; conditions: for Css,max / Tss,max / AUCτ: N = 28; for Css,max / AUCτ / Metabolic ratio (AUCmetabolite/AUCatorvastatin): mean ± SD; for Tss,max: plasma, median (minimum-maximum); for Css,max, GMR (90% CI): ratio of atorvastatin co-administered with tegoprazan to administered alone
[5] = Serum gastrin, pepsinogen I and II levels pre-dose and 24 h after 7 days of administration; type: in vivo, human; conditions: co-administered with atorvastatin for 7 days; compared to the baseline
From the text: Error bars represent standard errors. The increase of serum levels in each intervention was compared to the intervention R. P-values were adjusted by Tukey-Kramer method; *p < 0.05; **p < 0.001.

CYP3A4 [6] = assay: CYP3A4 inhibition in vitro (literature values); type: biochemical; conditions: ref Nishihara et al., 2019, HK inno.N Corp
CYP3A4 [7] = system: CYP3A4; set-up: method as in Nishihara et al., 2019; HK inno.N Corp; conditions: in vitro; ref Nishihara et al., 2019; HK inno.N Corp; cited from earlier work
OATP1B1 = conditions: cited from earlier work
CYP3A4 [8] = assay: Estimated intestinal luminal concentration of vonoprazan compared with the CYP3A4 IC50; conditions: vonoprazan 20 mg orally administered
[9] = TEAE, intervention arm = label, P-CAB arms co-administered with atorvastatin 40 mg, 7 days
[10] = Atorvastatin alone (N = 28 for each intervention), comparison with tegoprazan
[11] = Atorvastatin alone (N = 28 for each intervention), comparison with vonoprazan
[12] = Reference 1: first intervention, atorvastatin 40 mg alone 7 days
[13] = Reference 2: second intervention, atorvastatin 40 mg alone 7 days
[14] = atorvastatin 40 mg co-administered with tegoprazan 50 mg 7 days
[15] = atorvastatin 40 mg co-administered with vonoprazan 20 mg 7 days
[16] = atorvastatin co-administered with vonoprazan compared to atorvastatin alone
[17] = TEAE, serum gastrin greater than 200 ng/L, intervention arm = label, co-administered with atorvastatin 40 mg, 7 days

Compound: CC(C)c1c(C(=O)Nc2ccccc2)c(-c2ccccc2)c(-c2ccc(F)cc2)n1CC[C@@H](O)C[C@@H](O)CC(=O)O [Reference 2, atorvastatin]
- Anaemia: number of events [2, 9]: 1
- Anaemia: number of subjects [2, 9]: 1
- Anaemia: percentage of subjects [2, 9]: 3.6%
- Blood bilirubin increased: number of events [2, 9]: 2
- Blood bilirubin increased: number of subjects [2, 9]: 2
- Blood bilirubin increased: percentage of subjects [2, 9]: 7.1%
- Pyuria: number of events [2, 9]: 1
- Pyuria: number of subjects [2, 9]: 1
- Pyuria: percentage of subjects [2, 9]: 3.6%
- number of TEAEs (all) ([2]; listed as intervention R2): 8
- number of subjects with TEAEs ([2]; listed as intervention R2): 7

Compound: CC(C)c1c(C(=O)Nc2ccccc2O)c(-c2ccccc2)c(-c2ccc(F)cc2)n1CCC(O)CC(O)CC(=O)O (centres unmarked) [2-hydroxyatorvastatin]
- AUCτ, geometric least squares mean [4, 10]: 137.9 ng·h/mL
- Css,max, geometric least squares mean [4, 10]: 22.5 ng/mL
- AUCτ, geometric least squares mean [4, 11]: 138.2 ng·h/mL
- Css,max, geometric least squares mean [4, 11]: 22.7 ng/mL
- AUCτ [4, 12]: 152.04 ± 70.25 ng·h/mL
- Css,max [4, 12]: 24.95 ± 11.77 ng/mL
- Metabolic ratio (AUCmetabolite/AUCatorvastatin) [4, 12]: 1.27 ± 0.52
- AUCτ [4, 13]: 144.35 ± 58.71 ng·h/mL
- Css,max [4, 13]: 25.72 ± 17.15 ng/mL
- Metabolic ratio (AUCmetabolite/AUCatorvastatin) [4, 13]: 1.32 ± 0.55
- AUCτ, geometric least squares mean ([4]; With Tegoprazan (N = 28)): 144.8 ng·h/mL
- Css,max, geometric least squares mean ([4]; With Tegoprazan (N = 28)): 23.8 ng/mL
- AUCτ, geometric least squares mean ([4]; With Vonoprazan (N = 28)): 125.1 ng·h/mL
- Css,max, geometric least squares mean ([4]; With Vonoprazan (N = 28)): 15.91 ng/mL
- AUCτ [4, 14]: 156.46 ± 67.69 ng·h/mL
- Css,max [4, 14]: 26.34 ± 12.64 ng/mL
- Metabolic ratio (AUCmetabolite/AUCatorvastatin) [4, 14]: 1.31 ± 0.47
- AUCτ [4, 15]: 135.57 ± 64.05 ng·h/mL
- Css,max [4, 15]: 18.19 ± 12.16 ng/mL
- Metabolic ratio (AUCmetabolite/AUCatorvastatin) [4, 15]: 0.90 ± 0.32
- Decrease of AUCτ [4, 16]: 9%
- Decrease of Css,max [4, 16]: 30%
- Css,max, GMR (90% CI) [4]: 1.06 (0.95-1.17)

Compound: CC(C)c1c(C(=O)Nc2ccccc2)c(-c2ccccc2)c(-c2ccc(F)cc2)n1CC[C@@H](O)C[C@@H](O)CC(=O)O [Reference 1, atorvastatin]
- Anaemia: number of events [2, 9]: 1
- Anaemia: number of subjects [2, 9]: 1
- Anaemia: percentage of subjects [2, 9]: 3.2%
- Blood bilirubin increased: number of events [2, 9]: 1
- Blood bilirubin increased: number of subjects [2, 9]: 1
- Blood bilirubin increased: percentage of subjects [2, 9]: 3.2%
- Ocular discomfort: number of events [2, 9]: 1
- Ocular discomfort: number of subjects [2, 9]: 1
- Ocular discomfort: percentage of subjects [2, 9]: 3.2%
- Pyuria: number of events [2, 9]: 1
- Pyuria: number of subjects [2, 9]: 1
- Pyuria: percentage of subjects [2, 9]: 3.2%
- number of TEAEs (all) [2]: Seven
- number of subjects with TEAEs [2]: 6
- percentage of subjects with TEAEs [2]: 19.4%

More lines, main results first:

- AUC (clinical; 40 mg): 61.1 ± 30.2 ng·h/mL
- AUC (clinical; geometric least squares mean): 52.1 ng·h/mL
- AUCτ, geometric least squares mean [1]: 67.3 ng·h/mL
- AUCτ ([1]; 40 mg): 57.36 ± 28.51 ng·h/mL
Compound: CC(C)c1c(C(=O)Nc2ccccc2)c(-c2ccccc2)c(-c2ccc(F)cc2)n1CC[C@@H]1C[C@@H](O)CC(=O)O1 [Atorvastatin lactone, atorvastatin lactone]

- Css,max, geometric least squares mean [4, 10]: 32.4 ng/mL
- Css,max, geometric least squares mean [4, 11]: 32.4 ng/mL
- Css,max [4, 12]: 37.21 ± 19.65 ng/mL
- Tss,max ([4]; Reference 1: first intervention, atorvastatin 40 mg alone once daily 7 days): 0.75 (0.50–6.00) h
- Css,max [4, 13]: 37.37 ± 22.81 ng/mL
- Tss,max ([4]; Reference 2: second intervention, atorvastatin 40 mg alone once daily 7 days): 0.75 (0.50–3.00) h
- Css,max, geometric least squares mean ([4]; With Tegoprazan (N = 28)): 35.4 ng/mL
- Css,max, geometric least squares mean ([4]; With Vonoprazan (N = 28)): 37.9 ng/mL
- Css,max [4, 14]: 40.75 ± 21.52 ng/mL
- Tss,max ([4]; atorvastatin 40 mg co-administered with tegoprazan 50 mg once daily 7 days): 1.25 (0.50–3.00) h
- Css,max [4, 15]: 42.71 ± 25.76 ng/mL
- Tss,max ([4]; atorvastatin 40 mg co-administered with vonoprazan 20 mg once daily 7 days): 1.50 (0.50–4.00) h
- Increase of Css,max ([4]; atorvastatin co-administered with tegoprazan, not statistically significant): 9%
- Increase of Css,max [4, 16]: 17%
- Css,max, GMR (90% CI) [4]: 1.09 (0.97–1.23)
- within-subject CV of Css,max ([4]; this study, multiple doses for 7 days (data not shown)): 33.6%
Compound: CC(C)c1c(C(=O)Nc2ccccc2)c(-c2ccccc2)c(-c2ccc(F)cc2)n1CC[C@@H](O)C[C@@H](O)CC(=O)O [Atorvastatin, atorvastatin]
- fraction of orally administered dose lost in the gut [3]: 76%
- subjects who discontinued the study due to AEs [2]: 1

- expected plasma concentration at clinical doses relative to the CYP3A4 IC50 (fold lower) (CYP3A4 [6]): 25 fold
Compound: Cc1nc2cc(C(=O)N(C)C)cc(O[C@H]3CCOc4cc(F)cc(F)c43)c2[nH]1 [Tegoprazan, tegoprazan]
- increase in serum pepsinogen I [5]: 2.7 times
- increase in serum pepsinogen II [5]: 2.2 times
- increase of serum gastrin [5]: 1.2 times
- IC50 (CYP3A4 [7]): > 30 µM
- Blood bilirubin increased: number of events [2, 9]: 2
- Blood bilirubin increased: number of subjects [2, 9]: 2
- Blood bilirubin increased: percentage of subjects [2, 9]: 6.7%
- Neutrophil count decreased: number of events [2, 9]: 1
- Neutrophil count decreased: number of subjects [2, 9]: 1
- Neutrophil count decreased: percentage of subjects [2, 9]: 3.3%
- Ocular discomfort: number of events [2, 9]: 1
- Ocular discomfort: number of subjects [2, 9]: 1
- Ocular discomfort: percentage of subjects [2, 9]: 3.3%
- Pyuria: number of events [2, 9]: 1
- Pyuria: number of subjects [2, 9]: 1
- Pyuria: percentage of subjects [2, 9]: 3.3%
- subjects who discontinued the study due to AEs [2]: 1
- number of TEAEs (all) [2]: Ten
- number of subjects with TEAEs [2]: 7
- percentage of subjects with TEAEs [2]: 23.3%
- inhibitory activity on OATP1B1 (OATP1B1; in vitro / non-clinical study, ref HK inno.N Corp): showed the inhibitory activity on some OATP1B1 substrates; also recorded: showed various inhibitory activities

Compound: CNCc1cc(-c2ccccc2F)n(S(=O)(=O)c2cccnc2)c1 [Vonoprazan, vonoprazan]
- Hypergastrinaemia: percentage of subjects [2, 17]: 20.7%
- Blood bilirubin increased: number of events [2, 9]: 1
- Blood bilirubin increased: number of subjects [2, 9]: 1
- Dyspepsia: number of events [2, 9]: 2
- Dyspepsia: number of subjects [2, 9]: 2
- Headache: number of events [2, 9]: 2
- Headache: number of subjects [2, 9]: 2
- Neutrophil count decreased: number of events [2, 9]: 2
- Neutrophil count decreased: number of subjects [2, 9]: 2
- Pyuria: number of events [2, 9]: 2
- Pyuria: number of subjects [2, 9]: 2
- occurrence of hypergastrinemia (serum gastrin level greater than 200 ng/L) ([2]; across the interventions): only occurred when atorvastatin was co-administered with vonoprazan
- number of TEAEs (all) [2]: 17
- percentage of subjects with TEAEs [2]: 51.7%
- inhibition of OATP1B1 (OATP1B1; in vitro study, ref Pharmaceuticals and Medical Devices Agency, 2014): did not inhibit OATP1B1
